{"source": "patent US20130202649A1", "about": "“ACTIVATION OF INNATE IMMUNITY FOR NUCLEAR REPROGRAMMING OF SOMATIC CELLS” (The Board of Trustees of the Leland Stanford Junior …, priority 2012, published 2013)", "key": {"human BJ fibroblasts": {"system": "human BJ fibroblasts", "test": "Temporal target and pluripotency gene expression (qPCR) after retroviral vector, CPP or TLR3 agonist treatment", "type": "cell-based", "from_the_text": "In an effort to understand and overcome this failure, we examined the temporal sequence of target gene expression in response to a retroviral construct (pMX-Sox2) versus the corresponding CPP(CPP-SOX2). We focused on validated downstream targets such as Jarid2, Zic2, and bMyb for Sox2-activated genes, as well as, downstream genes known to function in nuclear reprogramming, i.e. Nanog, Sox2 and Oct4. Human fibroblasts were synchronized by serum starvation and then subjected to either a single infection with pMX-Sox2 or daily treatments of CPP-SOX2, and gene expression was assayed over 6 days.\nViral preparation and infection HEK293FT cells were plated at 6×10^6 cells per T225 flask and incubated overnight. Cells were transfected with 10 μg of VSV-G (envelope protein), 15 μg of pUMVC (packaging plasmid) and 10 μg of gene of interest (Sox2 or Oct4) with Lipofectamine. 48 hours after transfection, the supernatant of transfectant was collected and filtered through a 0.45 μm filter. Following spinning at 17,100 rpm for 2 hr 20 min, the viral pellet was resuspended to make 100× stock solutions. Human fibroblasts were seeded at 5×10^4 cells per well of a 6-well dish a day before transduction. The medium was replaced with virus-containing supernatant supplemented with 8 μg/ml polybrene, and incubated for 24 hr.\nTreatments At 60-70% confluency, BJ fibroblast cells were serum-starved using 1% serum to induce G1 cell cycle arrest. The synchronized BJ fibroblasts were then subjected to either a single infection with retroviral constructs or daily treatments with 200 nM CPPs (CPP-SOX2 or CPP-OCT4). Poly I:C (300 ng/ml) was added to the cells simultaneously with the CPPs. For experiments involving peptide inhibitors, cells were pretreated for 6 hrs at 40 uM with either MyD88 inhibitory peptide (Pepinh-MyD) or TRIF inhibitory peptide (Pepinh-TRIF) followed by CPP treatments.\nGene Expression and Microarray Analyses RNA was isolated with the RNeasy kit. First-strand cDNA was primed with oligo(dT) primers and qPCR was performed with primer sets from Applied Biosystems. […]"}, "[1]": {"system": "innate immune response genes (TLR3, NF-κB, IFN-β, Stat1, Stat2)", "test": "Expression of innate immunity related genes", "type": "cell-based, human", "from_the_text": "To gain more insight into the mechanisms by which a retroviral particle could accelerate nuclear reprogramming, we substituted a non-integrating mutant of pMX-GFP by introducing a frameshift mutation near the poi coding region of the retrovirus. This mutant can enter the cell, direct synthesis of intact virus particles that retain reverse transcriptase activity, but cannot integrate newly synthesized viral DNA into the host genome. […] Accordingly, integration of foreign DNA into the host genome is not required for the difference in gene expression between the CPPs and their corresponding viral vectors. Viral infection activates innate immunity, by virtue of interaction with Toll-like receptors (TLRs). The TLRs recognize pathogen-associated molecular patterns (PAMPs) associated with viral protein, lipopolysaccharides, DNA or RNA. We hypothesized that activation of innate immunity through TLRs may be involved in the difference in gene expression. Indeed, we observed that our retroviral vectors (but not the CPPs) activated inflammatory (innate immune response) genes, including the toll-like receptor 3 (TLR3), NF-κB, IFN-β, Stat1 and Stat2 (FIG. 11).\nTreatments At 60-70% confluency, BJ fibroblast cells were serum-starved using 1% serum to induce G1 cell cycle arrest. […]"}}}
{"substance": "Polyinosinicpolycytidylic acid [Poly I:C]", "values": [{"measurement": "target and pluripotency gene expression", "setting": "human BJ fibroblasts; agent alone, CPP 200 nM daily or single infection on Day 0, assayed over 6 days", "value": "unaffected"}, {"measurement": "temporal expression of the downstream genes induced by CPP-OCT4", "setting": "human BJ fibroblasts; combined with CPP-OCT4 200 nM daily", "value": "accelerated"}, {"measurement": "expression of the downstream genes induced by CPP-SOX2", "setting": "human BJ fibroblasts; combined with CPP-SOX2 200 nM daily, poly I:C 300 ng/ml", "value": "accelerated"}, {"measurement": "expression of NF-κB and TLR3", "setting": "[1]; BJ fibroblasts", "value": "sustained increase"}, {"measurement": "expression of inflammatory (innate immune response) genes", "setting": "[1]; human fibroblasts", "value": "induces the expression of genes involved in innate immunity"}]}
